The values below come from patent US4067996A, “Phenylacetic acid derivatives” (Synthelabo, priority 1974, dated 1978).

The structures appear in SMILES notation. Like-named read-outs stand apart in the source and are kept apart here. A value given as a limit tells only on which side of the number the result lay.

Data set [1] can be described thus: Acute toxicity in mice on oral administration. The format is in vivo. Conditions: mouse, in vivo, read-out: LD 50 (acute toxicity). The protocol:
(§1) The acute toxicity was studied by oral administration to CDl mice of both sexes. The 50% lethal doses (LD 50) were determined graphically.
(§2) In a second series of experiments, the experimental technique was modified slightly: the compounds studied are dispersed in olive oil instead of being dissolved in water.

The test system of data set [2] is cholesterol in the serum. Description: Hypocholesterolaemic action in rats on oral administration (7 days). Conditions: daily for 7 days. The format is in vivo, male albino rats of the CDl race (Charles River). The protocol: (§3) The reference substances chosen were clofibrate or ethyl 2-p-chlorophenoxy-2-methyl-propionate, and halofenate or 2-acetamido-ethyl2-p-chlorophenyl-2-m-trifluoromethylphenoxy-acetate.
(§4) The hypocholesterolaemic action was determined on male albino rats of the CDl race (Charles River) weighing on average 250 g and fed normally, the rats being divided into batches each of 10 animals. Daily doses of one of the compounds studied were administered orally for 7 days. On the 8th day, the contents of cholesterol and triglycerides in the blood were determined and compared with those of animals of the untreated comparison group. In this way it was possible graphically to evaluate, for each compound, the 30% active dose (AD 30), that is to say the daily dose which causes a 30% reduction in the content of cholesterol or of triglycerides in the serum.
(§5) *AD 30 = daily dose which causes a 30% reduction in the content of
as §2

Data set [3] deals with triglycerides in the serum. Description: Hypolipaemic activity (triglycerides) in rats on oral administration (7 days). It is filed as in vivo, male albino rats of the CDl race (Charles River). As to conditions: daily for 7 days. The protocol: as §3, §4, §5, §2
Data set [4] deals with CDl mice. Description: Acute toxicity in mice on oral administration. It is filed as in vivo. Conditions: Table III, second series, dispersed in olive oil. The protocol:
as §1, §2

Data set [5] deals with content of lipids (triglycerides and cholesterol) in the blood. Description: Hypolipaemic and hypocholesterolaemic effect compared with reference substances (summary). It is filed as in vivo, rats. The protocol:
as §3, §4, §2

Setting [6] is: Table II, first series (dissolved in water).
Where [7] appears, read: Table III, second series, dispersed in olive oil.

Consider `CCOC(=O)C(Oc1ccc(F)c(C(F)(F)F)c1)c1ccc(Cl)cc1` (centres unmarked) [SL C 150, Ethyl 2-(4-chloro-phenyl)-2-(4-fluoro-3-trifluoromethyl-phenoxy)-acetate], for which the LD50 in data set [1] (Table II, first series) is above 2500 mg/kg. In addition, the “AD 30, cholesterol (daily dose which causes a 30% reduction in serum cholesterol)” value in data set [2] (setting [6]) turned out to be 20 mg/kg. Moreover, in data set [3] (setting [6]), the “AD 30, triglycerides (daily dose which causes a 30% reduction in serum triglycerides)” value is recorded as 25 mg/kg.
The like results for `O=C(OCc1cccnc1)C(Oc1ccc(F)c(C(F)(F)F)c1)c1ccc(Cl)cc1` (centres unmarked) [SL D 065] were, in that order, above 2000 mg/kg, 55 mg/kg and 35 mg/kg.
For `NC(=O)C(Oc1ccc(F)c(C(F)(F)F)c1)c1ccc(Cl)cc1` (centres unmarked) [SL D 063], in that order: above 2000 mg/kg, above 100 mg/kg and 20 mg/kg.
The like results for `O=C(O)C(Oc1ccc(F)c(C(F)(F)F)c1)c1ccc(Cl)cc1` (centres unmarked) [SL C 151, 2-(4-Chloro-phenyl)-2-(4-fluoro-3-trifluoromethyl-phenoxy)-acetic acid] were, in that order, 2000 mg/kg, 50 mg/kg and 12 mg/kg.
For `CC1CC(OC(=O)C(Oc2ccc(F)c(C(F)(F)F)c2)c2ccc(Cl)cc2)CC(C)(C)C1` (centres unmarked) [SL-D.128, 3,3,5-Trimethyl-cyclohexyl-1 2-(4-fluoro-3-trifluoromethyl-phenoxy)-2-(4-chloro-phenyl)-acetate], the LD50 in data set [1] (setting [7]) is above 2000 mg/kg. Moreover, in data set [2] (setting [7]), the “AD 30, cholesterol (daily dose which causes a 30% reduction in serum cholesterol)” value was 80 mg/kg. In data set [3] (setting [7]), the “AD 30, triglycerides (daily dose which causes a 30% reduction in serum triglycerides)” value is given as 10 mg/kg.
Consider `CCOC(=O)C(C)(C)Oc1ccc(Cl)cc1` [Clofibrate, ethyl 2-p-chlorophenoxy-2-methyl-propionate, reference compound], for which the LD50 in data set [1] (Table II, first series) was 1300 mg/kg. Moreover, the “AD 30, cholesterol (daily dose which causes a 30% reduction in serum cholesterol)” value in data set [2] (setting [6]) amounted to 160 mg/kg. Also, the “AD 30, triglycerides (daily dose which causes a 30% reduction in serum triglycerides)” value in data set [3] (setting [6]) is 200 mg/kg.
As to `CC(=O)NCCOC(=O)C(Oc1ccc(F)c(C(F)(F)F)c1)c1ccc(Cl)cc1` (centres unmarked) [SL C 149, 2-Acetylamino-ethyl 2-(4-chloro-phenyl)-2-(4-fluoro-3-trifluoromethyl-phenoxy)-acetate], the LD50 in data set [1] (Table II, first series) is 2000 mg/kg. Also, the “LD 50 (acute toxicity)” value in data set [4] is reported as 2,000 mg/kg. In addition, the “AD 30, cholesterol (daily dose which causes a 30% reduction in serum cholesterol)” value in data set [2] (setting [6]) was found to be 17 mg/kg; in data set [2] (setting [7]), 30 mg/kg. Also, the “AD 30, triglycerides (daily dose which causes a 30% reduction in serum triglycerides)” value in data set [3] (setting [6]) was 12 mg/kg; in data set [3] (setting [7]), 20 mg/kg. The “times more active than clofibrate” value in data set [5] (relative to clofibrate) was “about 15 times”. The “times more active than halofenate” value in data set [5] (relative to halofenate) is recorded as “four”.
Regarding `CN(C)C(=O)CCCOC(=O)C(Oc1ccc(F)c(C(F)(F)F)c1)c1ccc(Cl)cc1` (centres unmarked) [SL-D.126, N,N-Dimethyl-3-aminocarbonyl-propyl 2-(4-fluoro-3-trifluoromethyl-phenoxy)-2-(4-chloro-phenyl)-acetate], the LD50 in data set [1] (setting [7]) was above 2000 mg/kg. In addition, the “AD 30, cholesterol (daily dose which causes a 30% reduction in serum cholesterol)” value in data set [2] (setting [7]) was determined as 70 mg/kg. For the same compound, in data set [3] (setting [7]), the “AD 30, triglycerides (daily dose which causes a 30% reduction in serum triglycerides)” value worked out at 20 mg/kg.
On to `CC(=O)NCCOC(=O)C(Oc1cccc(C(F)(F)F)c1)c1ccc(Cl)cc1` (centres unmarked) [Halofenate, 2-acetamido-ethyl2-p-chlorophenyl-2-m-trifluoromethylphenoxy-acetate, reference compound], for which the LD50 in data set [1] (Table II, first series) was determined as 1800 mg/kg. For the same compound, the “AD 30, cholesterol (daily dose which causes a 30% reduction in serum cholesterol)” value in data set [2] (setting [6]) turned out to be 70 mg/kg. Also, the “AD 30, triglycerides (daily dose which causes a 30% reduction in serum triglycerides)” value in data set [3] (setting [6]) was determined as 50 mg/kg.
The like results for `CC(=O)NCCOC(=O)C(Oc1ccc(F)c(C(F)(F)F)c1)c1ccc(F)cc1` (centres unmarked) [SL D 097, 2-acetylamino-ethyl 2-(4-fluoro-3-trifluoromethyl-phenoxy)-2-(4-fluoro-phenyl)acetate] were, in that order, above 2000 mg/kg, above 100 mg/kg and 25 mg/kg.
For `O=C(NCCO)C(Oc1ccc(F)c(C(F)(F)F)c1)c1ccc(Cl)cc1` (centres unmarked) [SL D 064, 2-(4-Fluoro-3-trifluoromethyl-phenoxy)-2-(4-chloro-phenyl)-N-(2-hydroxy-ethyl)-acetamide], in that order: above 2000 mg/kg, above 100 mg/kg and 20 mg/kg.
Take `CN1CCC(OC(=O)C(Oc2ccc(F)c(C(F)(F)F)c2)c2ccc(Cl)cc2)CC1` (centres unmarked) [SL-D.123, 1-Methyl-piperidinyl-4 2-(4-fluoro-3-trifluoromethyl-phenoxy)-2-(4-chloro-phenyl)-acetate]: the LD50 in data set [1] (setting [7]) was above 2000 mg/kg. Moreover, in data set [2] (setting [7]), the “AD 30, cholesterol (daily dose which causes a 30% reduction in serum cholesterol)” value is given as 50 mg/kg. Besides, the “AD 30, triglycerides (daily dose which causes a 30% reduction in serum triglycerides)” value in data set [3] (setting [7]) worked out at 20 mg/kg.
